From US12440570B2, “Conjugation of MCR1 ligand with cytotoxic drugs for treating skin cancer” (ARIZONA BOARD OF REGENTS ON BEHALF OF THE UNIVERSITY OF …, priority 2019, dated 2025)
Where two headings read alike, the source gives them in different places.

Experiments:
A375 melanoma cells = test: cells; type: cell-based, human; conditions: XTT, 24 h incubation, read-out: IC50, A375 melanoma cell viability
Experimental: A375 cells were seeded in 96 well plates at a density of around 10^5 cells per well in 95 μL of MEM medium and incubated for 24 h, Cells were treated with 5 μL of drugs in a final concentration of 0, 0.3 nM, 1 nM, 3 nM, 10 nM, 30 nM, 100 nM and 300 nM for 24 h. XTT solution was prepared by dissolving 4 mg XTT in 4 mL MEM medium. PMS solution was prepared by dissolving 3 mg of PMS in 1 mL of phosphate buffer saline (PBS). 10 μL of PMS solution was added to 4 mL of XTT solution, and 25 μL of the PMS/XTT mixture was added to each well. The plate was incubated at 37 ° C. for another 2 h culture. Absorbance was measured at 450 nm using a pQuant Universal Microplate Reader (Bio-Tek instruments, Inc., Winooski, VT). Absorbance from no-cells control was subtracted and the percentage of cell viability was calculated as the percentage of absorbance relative to cells treated with medium.

[1] = cited from earlier work
human MC1R = molecular target: T1, human MC1R (Homo sapiens, UniProt Q01726); test: Competitive binding assay with 125I labelled NDP-α-MSH on whole cells, MC1R; conditions: for Ki: HEK293 cells overexpressing human MC1R, 125I NDP-α-MSH; for displacement of NDP-α-MSH from MC1R: within micromolar range concentration
T1 construct: expressed in transfected cells; host or cells: HEK293 (stably transfected)
T1 sequence (Q01726 whole entry): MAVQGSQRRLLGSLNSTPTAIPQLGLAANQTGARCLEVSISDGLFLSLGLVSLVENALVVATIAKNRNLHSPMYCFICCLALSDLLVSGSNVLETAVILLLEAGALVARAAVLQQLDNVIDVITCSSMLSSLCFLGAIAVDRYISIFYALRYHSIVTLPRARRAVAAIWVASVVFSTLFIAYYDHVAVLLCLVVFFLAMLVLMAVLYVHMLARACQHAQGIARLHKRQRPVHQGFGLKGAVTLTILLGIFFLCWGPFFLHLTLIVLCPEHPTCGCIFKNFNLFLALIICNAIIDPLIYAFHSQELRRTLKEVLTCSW
Experimental: Competitive binding assays were performed on whole cells. Stably transfected HEK293 cell lines overexpressing human MC1R, MC3R, MC4R or MC5R were seeded on 96-well plates 48 h before the assay and grown to 100,000 cells per well. For the assay, the medium was removed, and cells were washed twice with a binding buffer containing minimum essential medium with Earle's salt (MEM, GIBCO), 25 mM HEPES (pH 7.4), 0.2% bovine serum albumin, 1 mM 1,10-phenanthrolone, 0.5 mg/L leupeptin and 200 mg/L bacitracin. Cells were incubated with different concentrations of unlabeled test compounds and ^125I labelled NDP-α-MSH (PerkinElmer, 100,000 cpm/well, 0.1386 nM) for 40 min at 37° C. The medium was subsequently removed, and the cells were washed twice with the binding buffer. The cells were lysed by 50 μL of 0.1 mM NaOH and 50 μL of 1% Triton X-100. The plates were left dry overnight under the hood, and 50 μL of scintillation fluid (OptiPhase SuperMix, PerkinElmer) were added in each well. The radioactivity was measured using MicroBeta 2 microplate counter (PerkinElmer).

[2] = test system: HEK293 kidney epithelial cells; test: Live-cell confocal microscopy, fluorescence uptake by HEK293 cells; type: cell-based; conditions: 3 μM, 2.5 h
Experimental: (§1) 1 mL of A375 or HEK293 cell suspension (˜5×10^4 cells) were seeded in 35 mm No. 1.5 coverslip glass-bottomed microwell dish (MatTek) and cultured overnight. Cells were gently washed with PBS twice and treated with compound 2 (3 μM) with or without MT-II (30 μM) in phenol red-free, HEPES-supplemented DMEM. After incubation at 37° C. for indicated time, cells were washed three times with PBS before imaging. Images were taken with Zeiss LSM880 inverted confocal microscope with either bright field or laser at […] with 2% laser power and Plan-Apochromat 63×/1.4 Oil DIC M27 objective.

[3] = test system: A375 malignant melanoma cells; test: Live-cell confocal microscopy, fluorescence uptake by A375 cells; type: cell-based, human
Experimental: as §1

[4] = linear peptide; cited from earlier work

CC[C@@]1(O)C(=O)OCc2c1cc1n(c2=O)Cc2cc3ccccc3nc2-1 [CPT, camptothecin, reference compound]
IC50 (A375 melanoma cells; Homo sapiens, A-375): 47 ± 2 nM | solubility [1]: poor solubility

CCCC[C@H](NC(=O)CCCCCNC(=O)[C@@H](N)CSSCCOC(=O)O[C@]1(CC)C(=O)OCc2c1cc1n(c2=O)Cc2cc3ccccc3nc2-1)C(=O)N[C@H]1CC(=O)NCCCC[C@@H](C(N)=O)NC(=O)[C@H](Cc2c[nH]c3ccccc23)NC(=O)[C@H](CCCNC(=N)N)NC(=O)[C@@H](Cc2ccccc2)NC(=O)[C@H](Cc2c[nH]cn2)NC1=O [CPT-MT-II (1)]
Ki (human MC1R; Ki MC1R): 57 nM | selectivity to MC1R as compared to MC3R, MC4R and MC5R (human MC1R; from Ki values): 3-6 fold | IC50 (A375 melanoma cells): 16 nM

CCCC[C@H](NC(=O)CCCCCNC(=O)[C@@H](N)CSSCCOC(=O)Oc1ccc2c(c1)Oc1cc(O)ccc1C21OC(=O)c2ccccc21)C(=O)N[C@H]1CC(=O)NCCCC[C@@H](C(N)=O)NC(=O)[C@H](Cc2c[nH]c3ccccc23)NC(=O)[C@H](CCCNC(=N)N)NC(=O)[C@@H](Cc2ccccc2)NC(=O)[C@H](Cc2c[nH]cn2)NC1=O (some centres unmarked) [fluorescein-MT-II (2)]
fluorescence uptake by HEK293 cells compared to A375 cells [2]: much weaker fluorescence intensity | Ki (human MC1R; read-out: Ki MC1R): 172 nM | displacement of NDP-α-MSH from MC1R (human MC1R): fully displace | displacement of NDP-α-MSH from MC1R (human MC1R; listed as fluorescein-MT-II): fully displace NDP-α-MSH | fluorescence uptake by A375 cells ([3]; 3 μM with 30 μM of MT-II, 2.5 h): not observed | fluorescence uptake by A375 cells ([3]; 3 μM, 0.5 h): No significant fluorescence uptake | fluorescence uptake by A375 cells ([3]; 3 μM, 2.5 h): strong fluorescence | time for release of fluorescein into A375 ([3]; confocal microscopy): at least 90 minutes

α-MSH
half-life [4]: around 10 minutes
